The target of this assay is Dipeptidyl peptidase 1 (Homo sapiens, UniProt P53634). The experiment in a line: In Vitro Inhibitory Assay. How it is done: The compound was diluted with DMSO to a 384-well echo plate at a concentration of 100× of the highest concentration at the beginning of the experiment. 0.2 μL of the diluted compound was pipetted to a black-bottomed 384-well reaction plate for later use. […] The solution was added to the black-bottom 384-well reaction plate ([…]). 10 μL of the buffer was added for the vehicle control group. The plate containing compounds in its wells was incubated at room temperature for 30 minutes.
Chain of Dipeptidyl peptidase 1 (P53634 25-134 limits assumed): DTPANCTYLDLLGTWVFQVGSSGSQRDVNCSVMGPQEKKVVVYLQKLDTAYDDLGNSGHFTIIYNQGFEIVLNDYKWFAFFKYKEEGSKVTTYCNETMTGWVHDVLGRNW
Chain of Dipeptidyl peptidase 1 (P53634 231-394 limits assumed): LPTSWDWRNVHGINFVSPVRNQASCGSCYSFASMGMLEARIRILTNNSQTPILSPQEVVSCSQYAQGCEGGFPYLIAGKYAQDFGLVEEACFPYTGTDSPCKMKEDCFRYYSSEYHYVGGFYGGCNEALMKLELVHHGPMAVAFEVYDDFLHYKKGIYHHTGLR
Chain of Dipeptidyl peptidase 1 (P53634 395-463 limits assumed): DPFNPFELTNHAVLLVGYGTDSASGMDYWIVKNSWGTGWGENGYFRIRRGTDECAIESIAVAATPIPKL

Take `N#C[C@H](Cc1ccc2c(c1)CC(=O)N(c1ccc(F)cc1)C2)NC(=O)C1(N)CCCCC1` [US20240083888, Compound 58]: 17 nM corresponded to half-maximal inhibition (IC50).

For the origin of these results see BindingDB's records for patent US20240083888 (Reistone Biopharma Company, 2024).
